Laboratory results as given in ChEMBL document CHEMBL6078680, “Improving the Stability and Anti-Infective Activity of Sea Turtle AMPs Using Multiple Structural Modification Strategies” (J Med Chem, 2024).
The source made the active and inactive calls. No cut-off for these calls is given here. Non-standard residues stand in square brackets, D forms with d. Residues, ends and D or L forms follow the SMILES beside them. Orn = NCCC[C@H](N)C(=O)O

Assays:
Staphylococcus aureus [1] = test: Antimicrobial activity against Staphylococcus aureus CMCC 26003 assessed as fold increase in MIC incubated for 18 hrs in presence of CCCP; assay type: functional
Escherichia coli [2] = test: Antimicrobial activity against Escherichia coli CMCC44102 assessed as reduction in microbial growth incubated for 18 hrs by broth microdilution method; assay type: functional
Escherichia coli [3] = test: Drug resistance, ratio of MIC for Escherichia coli ATCC 25922 after 40 passages to MIC for Escherichia coli ATCC 25922 during first exposure; assay type: functional
Staphylococcus aureus [4] = test: Antibiofilm activity against Staphylococcus aureus CMCC 26003 assessed as reduction in biofilm formation at 0.5 times MIC incubated for 24 hrs by crystal violet staining based analysis; assay type: functional; set-up: scale not given: the % may be the effect or the level left
Staphylococcus aureus [5] = test: Antipersister-activity against Staphylococcus aureus CMCC 26003 assessed as elimination of persister cells at 50 times MIC preincubated adherent persistent cells with colistin incubation for 24 hrs; assay type: functional
Staphylococcus aureus [6] = test: Antimicrobial activity against Staphylococcus aureus CMCC 26003 at 5 times MIC measured at 180 mins; assay type: functional, organism-based
[7] = Acute toxicity in BALB/c mouse assessed as effect on ALT level at 10 mg/kg, iv measured for 24 hrs; assay type: organism-based; conditions: in vivo
Acinetobacter baumannii [8] = test: Antibiofilm activity against Acinetobacter baumannii ATCC 19606 assessed as inhibition of biofilm formation at 0.5 times MIC incubated for 48 hrs by crystal violet staining based analysis; assay type: functional
Staphylococcus aureus [9] = test: Antibiofilm activity against Staphylococcus aureus CMCC 26003 assessed as inhibition of biofilm formation incubated for 48 hrs by crystal violet staining based analysis; assay type: functional, organism-based
Escherichia coli [10] = test: Antibacterial activity against Escherichia coli ATCC 25922 at 1 times MIC in presence of exogenous DNA; assay type: functional, organism-based
Pseudomonas aeruginosa = test: Antimicrobial activity against Pseudomonas aeruginosa CMCC10104 assessed as reduction in microbial growth incubated for 18 hrs by broth microdilution method; assay type: functional
Acinetobacter baumannii [11] = test: In vivo antibacterial activity against Acinetobacter baumannii ATCC19606 infected in BALB/c mouse assessed as reduction in bacterial load in lung at 15 mg/kg, ip measured after 3 hrs; assay type: functional, organism-based
Acinetobacter baumannii [12] = test: In vivo antibacterial activity against Acinetobacter baumannii ATCC19606 infected in BALB/c mouse assessed as survival at 15 mg/kg, ip administered for 12 hrs and measured on day 7; assay type: functional; conditions: ATCC19606, 168 h, time 7 day
Cell membrane [13] = test: Disruption of cell membrane integrity in Escherichia coli ATCC 25922 assessed as cell membrane damage at 5 times MIC measured after 30 mins by scanning electron microscopic analysis; assay type: subcellular
[14] = Acute toxicity in BALB/c mouse assessed as mortality at 50 mg/kg, iv measured for 24 hrs; assay type: organism-based; conditions: in vivo, read-out: Activity
Enterococcus faecium = test: Antimicrobial activity against Enterococcus faecium 34 assessed as reduction in microbial growth incubated for 18 hrs by broth microdilution method; assay type: functional
Staphylococcus aureus [15] = test: Antibiofilm activity against Staphylococcus aureus CMCC 26003 assessed as biofilm eradication at 0.5 to 2 times MIC incubated for 24 hrs by crystal violet staining based analysis; assay type: functional
Acinetobacter baumannii [16] = test: In vivo antibacterial activity against Acinetobacter baumannii ATCC19606 infected in BALB/c mouse assessed as reduction in bacterial load in lung at 15 mg/kg, ip measured after 12 hrs; assay type: functional, organism-based
Escherichia coli [17] = test: Antibacterial activity against Escherichia coli ATCC 25922 assessed as increase in intracellular ROS production at 2 to 5 times MIC by DCFH-DA staining based assay; assay type: functional, organism-based
Salmonella enteritidis = test: Antimicrobial activity against Salmonella enterica subsp. enterica serovar Enteritidis ATCC 14028 assessed as reduction in microbial growth incubated for 18 hrs by broth microdilution method; assay type: functional
[18] = Acute toxicity in BALB/c mouse assessed as effect on BUN level at 10 mg/kg, iv measured for 24 hrs; assay type: organism-based; conditions: in vivo
[19] = Hemolytic activity at human Erythrocyte assessed as hemolysis at 100 microg/ml; assay type: toxicity, cell-based; conditions: erythrocytes, at 100 µg/mL, read-out: Activity
Cell membrane [20] = test: Disruption of cell membrane integrity in Staphylococcus aureus CMCC 26003 assessed as cell membrane damage at 5 times MIC measured after 30 mins by scanning electron microscopic analysis; assay type: subcellular
Enterococcus faecalis = test: Antimicrobial activity against Enterococcus faecalis ATCC 29217 assessed as reduction in microbial growth incubated for 18 hrs by broth microdilution method; assay type: functional
[21] = Acute toxicity in BALB/c mouse assessed as mortality at 15 mg/kg, iv measured for 24 hrs; assay type: organism-based; conditions: in vivo, read-out: Activity
Acinetobacter baumannii [22] = test: Antipersister-activity against Acinetobacter baumannii ATCC 19606 assessed as elimination of persister cells at 50 times MIC preincubated adherent persistent cells with colistin incubation for 24 hrs; assay type: functional
Peritoneal macrophage = test: Antiinflammatory activity in mouse Peritoneal macrophage cells assessed as inhibition of LPS-induced IL-6 production at 20 microg/ml incubated for 6 hrs by ELISA analysis; assay type: functional, cell-based; conditions: dose 20.0 µg/ml
Acinetobacter baumannii [23] = test: In vivo antibacterial activity against Acinetobacter baumannii ATCC19606 infected in BALB/c mouse assessed as reduction in bacterial load at 15 mg/kg, ip; assay type: functional, organism-based; conditions: time 3.0 hrs
Acinetobacter baumannii [24] = test: In vivo antibacterial activity against Acinetobacter baumannii ATCC19606 infected in BALB/c mouse assessed as survival at 15 mg/kg, ip administered for 12 hrs and measured after 3 hrs; assay type: functional; conditions: time 15 hrs
Acinetobacter baumannii [25] = test: Antibiofilm activity against Acinetobacter baumannii ATCC 19606 assessed as biofilm eradication incubated for 24 hrs by crystal violet staining based analysis; assay type: functional, organism-based
[26] = Acute toxicity in BALB/c mouse assessed as mortality at 10 mg/kg, iv measured for 24 hrs; assay type: organism-based; conditions: in vivo, read-out: Activity
Acinetobacter baumannii [27] = test: In vivo antibacterial activity against Acinetobacter baumannii ATCC19606 infected in BALB/c mouse assessed as reduction in bacterial load in liver at 15 mg/kg, ip measured after 3 hrs; assay type: functional, organism-based
Staphylococcus aureus [28] = test: Bactericidal activity against Staphylococcus aureus CMCC 26003 assessed as bacterial eradication incubated at 0.5 hrs in presence of thiourea; assay type: functional, organism-based
Staphylococcus aureus [29] = test: Antimicrobial activity against Staphylococcus aureus CMCC 26003 assessed as reduction in microbial growth incubated for 18 hrs by broth microdilution method; assay type: functional
Staphylococcus aureus [30] = test: Antibiofilm activity against Staphylococcus aureus CMCC 26003 assessed as biofilm eradication at 8 times MIC incubated for 24 hrs by crystal violet staining based analysis; assay type: functional
Staphylococcus aureus [31] = test: Antibiofilm activity against Staphylococcus aureus CMCC 26003 assessed as biofilm eradication incubated for 24 hrs by crystal violet staining based analysis; assay type: functional, organism-based
Clostridium perfringens = test: Antimicrobial activity against Clostridium perfringens ATCC 13124 assessed as reduction in microbial growth incubated for 18 hrs by broth microdilution method; assay type: functional
[32] = tested on: Staphylococcus epidermidis; test: Antimicrobial activity against Staphylococcus epidermidis assessed as reduction in microbial growth incubated for 18 hrs by broth microdilution method; assay type: functional
Acinetobacter baumannii [33] = test: Drug resistance, ratio of MIC for Acinetobacter baumannii ATCC1960 after 40 passages to MIC for Acinetobacter baumannii ATCC1960 during first exposure; assay type: functional
Staphylococcus aureus [34] = test: Antimicrobial activity against Staphylococcus aureus 08032706 assessed as reduction in microbial growth incubated for 18 hrs by broth microdilution method; assay type: functional

Question: With `CC[C@H](C)[C@H](NC(=O)[C@H](CCCN)NC(=O)[C@H](CO)NC(=O)[C@H](Cc1c[nH]cn1)NC(=O)[C@H](CCCN)NC(=O)[C@H](CC(C)C)NC(=O)[C@@H](NC(=O)[C@H](CCCN)NC(=O)CNC(=O)[C@H](CC(C)C)NC(=O)[C@H](CCC(N)=O)NC(=O)[C@H](CCCN)NC(=O)[C@H](CCCN)NC(=O)[C@@H](NC(=O)[C@H](CCCN)NC(=O)[C@H](CCCN)NC(=O)[C@@H](N)Cc1ccccc1)C(C)C)C(C)C)C(=O)N[C@H](C(=O)N[C@H](C(=O)NCC(=O)NCC(=O)N[C@@H](CCCN)C(=O)N[C@@H](CCSC)C(=O)N[C@@H](CCCN)C(=O)N[C@@H](Cc1ccccc1)C(=O)O)C(C)C)[C@@H](C)O` (H-F[Orn][Orn]V[Orn][Orn]QLG[Orn]VL[Orn]HS[Orn]ITVGG[Orn]M[Orn]F-OH) as the compound, how does the “fold change (FC)” value (Staphylococcus aureus [1]) read?
Answer: The value was 32.

Question: What about the MIC (Escherichia coli [2]) of the same compound?
Answer: The MIC was 18.8 µg/mL.

Question: What about the Ratio (Escherichia coli [3]) of the same compound?
Answer: The Ratio was 1.

Question: And the Activity (Staphylococcus aureus [4])?
Answer: The Activity was 20%.

Question: And the Activity (Staphylococcus aureus [5])?
Answer: Its Activity is 50%.

Question: And the Activity (Staphylococcus aureus [6])?
Answer: The Activity was “inactive”.

Question: What about the Activity [7] of the same compound?
Answer: The Activity was “Non-toxic”.

Question: What about the “inhibition (INH)” value (Acinetobacter baumannii [8]) of the same compound?
Answer: Its value is 10%.

Question: What about the Activity (Staphylococcus aureus [9]) of the same compound?
Answer: The Activity was “Active”.

Question: What about the Activity (Escherichia coli [10]) of the same compound?
Answer: The Activity was “Active”.

Question: What about the MIC (Pseudomonas aeruginosa) of the same compound?
Answer: Its MIC is 75 µg/mL.

Question: And the Activity (Acinetobacter baumannii [11])?
Answer: Its Activity is “Active”.

Question: What about the survival at 15 mg/kg (Acinetobacter baumannii [12]) of the same compound?
Answer: Its survival at 15 mg/kg is 40%.

Question: And the Activity (Cell membrane [13])?
Answer: The Activity was “Active”.

Question: What about the mortality at 24 h [14] of the same compound?
Answer: Its mortality at 24 h is 0%.

Question: What about the MIC (Enterococcus faecium) of the same compound?
Answer: The MIC was 9.38 µg/mL.

Question: And the Activity (Staphylococcus aureus [15])?
Answer: Its Activity is 20%.

Question: And the Activity (Acinetobacter baumannii [16])?
Answer: The Activity was “Active”.

Question: What about the Activity (Escherichia coli [17]) of the same compound?
Answer: Its Activity is “Active”.

Question: And the MIC (Salmonella enteritidis)?
Answer: The MIC was 37.5 µg/mL.

Question: And the Activity [18]?
Answer: Its Activity is “Non-toxic”.

Question: What about the hemolysis at 100 microg/ml [19] of the same compound?
Answer: The hemolysis at 100 microg/ml was less than 5%.

Question: What about the Activity (Cell membrane [20]) of the same compound?
Answer: The Activity was “Active”.

Question: What about the MIC (Enterococcus faecalis) of the same compound?
Answer: Its MIC is 18.8 µg/mL.

Question: What about the mortality at 24 h [21] of the same compound?
Answer: Its mortality at 24 h is 0%.

Question: And the Activity (Acinetobacter baumannii [22])?
Answer: The Activity was 60%.

Question: And the Activity (Peritoneal macrophage)?
Answer: The Activity was “Active”.

Question: And the Activity (Acinetobacter baumannii [23])?
Answer: Its Activity is “Time-dependent-effect”.

Question: And the Activity (Acinetobacter baumannii [24])?
Answer: The Activity was greater than 60%.

Question: And the Activity (Acinetobacter baumannii [25])?
Answer: Its Activity is “Active”.

Question: And the mortality at 24 h [26]?
Answer: The mortality at 24 h was 0%.

Question: What about the Activity (Acinetobacter baumannii [27]) of the same compound?
Answer: The Activity was “Active”.

Question: What about the Activity (Staphylococcus aureus [28]) of the same compound?
Answer: Its Activity is “Active”.

Question: What about the MIC (Staphylococcus aureus [29]) of the same compound?
Answer: The MIC was 75 µg/mL.

Question: What about the Activity (Staphylococcus aureus [30]) of the same compound?
Answer: Its Activity is 50%.

Question: And the Activity (Staphylococcus aureus [31])?
Answer: The Activity was “Active”.

Question: What about the MIC (Clostridium perfringens) of the same compound?
Answer: The MIC was 18.8 µg/mL.

Question: And the MIC [32]?
Answer: Its MIC is 18.8 µg/mL.

Question: What about the Ratio (Acinetobacter baumannii [33]) of the same compound?
Answer: Its Ratio is 1.

Question: What about the MIC (Staphylococcus aureus [34]) of the same compound?
Answer: Its MIC is 37.5 µg/mL.
